US9926275B2 (priority 2013, dated 2018)

Key:
[1] = biological target: T1, CB1 receptor (Homo sapiens, UniProt P21554); assay: DiscoveRx HitHunter cAMP XS+ assay in cAMP Hunter cell line, allosteric modulation of CP55,940 response; format: cell-based; conditions: for Emax: read-out: cAMP activity ECMax (%)
Method: Once it was established that the cells were healthy and growing normally, cells were passaged from flasks using cell dissociation reagent buffer and seeded into white walled clear bottom 384-well microplates for compound profiling. For profiling, cells were seeded at a density of 10000 cells per well in a total volume of 20 μL and were allowed to adhere and recover overnight prior to compound addition. Cells were treated the following day using the protocols shown below. cAMP modulation was determined using the DiscoveRx HitHunter cAMP XS+ assay.
Media was aspirated from cells and replaced with 10 μL 1:1 HBSS/Hepes: cAMP XS+ Ab reagent. Agonist (CP55,940) dose curves were performed to determine the EC20 value for the testing with the compounds of the present technology. 5 μL of 4× agonist was added to each well with an equal concentration of vehicle present. EC20 agonist concentration was determined directly from agonist dose curve.
(§1) For allosteric determination, cells were preincubated with compound followed by agonist challenge at the EC20 concentration of the agonist. 5 μL of 4× compound was added to cells and incubated at 37° C. for 30 minutes. 5 μL of 4× EC20 agonist was added to cells and incubated at 37° C. for 30 minutes.
Signal Detection: After appropriate compound incubation, assay signal was generated through incubation with 20 μL cAMP XS+ED/CL lysis cocktail for one hour followed by incubation with 20 μL cAMP XS+EA reagent for three hours at room temperature. Microplates were read following signal generation with a PerkinElmer Envision™ instrument for chemiluminescent signal detection.
(§2) Data Analysis: Dose curves were plotted using GraphPad Prism or Activity Base. The percentage activity is calculated using the following formula: % Activity=100%×(1−(mean RLU of test sample−mean RLU of MAX control)/(mean RLU of vehicle control [EC20 for PAM]−mean RLU of MAXcontrol).
(§3) Agonist (CP55,940) dose curves were performed for the CNR1 PathHunter and cAMP Hunter cell lines. […] The cAMP assay was performed in the presence of 20 μM forskolin (EC80).
(§4) In Vitro Evaluation: The in vitro evaluation of the covalent allosteric modulators was performed using as described previously.

[2] = biological target: T1, CB1 receptor; assay: β-arrestin recruitment in CNR1 PathHunter cell line, allosteric modulation of CP55,940 response; format: cell-based; conditions: for Emax: read-out: β-arrestin activity EMax (%)
Method: as §1, §2, §3, §4

[3] = Table 1, preincubation with compound, then CP55,940 challenge, 20 μM forskolin
[4] = Table 1, preincubation with compound, then CP55,940 challenge, 20 μM forskolin, read-out: cAMP EC50
[5] = Table 1, CP55,940 as agonist, read-out: β-arrestin EC50
[6] = Table 2, covalent allosteric modulators, read-out: cAMP activity EC50 (nm)
[7] = Table 2, covalent allosteric modulators, read-out: β-arrestin activity EC50 (nm)
[8] = Table 2, covalent allosteric modulators

T1 sequence (P21554 whole entry): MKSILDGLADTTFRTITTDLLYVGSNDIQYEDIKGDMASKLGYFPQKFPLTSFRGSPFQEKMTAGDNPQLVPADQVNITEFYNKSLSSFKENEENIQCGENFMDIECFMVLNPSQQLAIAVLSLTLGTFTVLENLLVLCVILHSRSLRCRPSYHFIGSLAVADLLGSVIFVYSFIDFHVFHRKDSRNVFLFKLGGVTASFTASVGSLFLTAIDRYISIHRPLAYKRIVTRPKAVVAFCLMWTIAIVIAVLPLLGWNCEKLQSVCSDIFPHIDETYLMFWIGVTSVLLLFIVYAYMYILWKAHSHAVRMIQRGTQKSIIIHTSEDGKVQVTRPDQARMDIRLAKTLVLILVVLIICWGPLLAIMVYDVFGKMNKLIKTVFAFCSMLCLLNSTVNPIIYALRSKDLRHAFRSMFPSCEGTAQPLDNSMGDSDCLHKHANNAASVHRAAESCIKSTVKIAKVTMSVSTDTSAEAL

SMILES	cAMP % inhibition [1, 3] [%]	EC50 [1, 4] [nM]	β-arrestin % inhibition ([2]; Table 1, CP55,940 as agonist) [%]	EC50 [2, 5] [nM]	EC50 [1, 6] [nM]	Emax [1] [%]	EC50 [2, 7] [nM]	Emax [2] [%]	Emax [1, 8] [%]	Emax [2, 8] [%]
O=C(Nc1ccc(Cl)cc1)Nc1ccccc1-c1cccc(N2CCCC2)n1 [Compound 55, 1-(4-Chlorophenyl)-3-(2-(6-(pyrrolidin-1-yl)pyridin-2-yl)phenyl)urea]	110	3400	61	5860	–	–	–	–	–	–
O=C(Nc1ccc(Cl)cc1)Nc1cccc(-c2ccnc(N3CCCC3)c2)c1 [Compound 57, 1-(4-Chlorophenyl)-3-(3-(2-(pyrrolidin-1-yl)pyridin-4-yl)phenyl)urea]	50	9790	111	77	–	–	–	–	–	–
O=C(Nc1ccc(Cl)cc1)Nc1cccc(-c2ccc(N3CCCC3)nc2)c1 [Compound 61, 1-(4-Chlorophenyl)-3-(3-(6-(pyrrolidin-1-yl)pyridin-3-yl)phenyl)urea]	6	> 10000	105	880	–	–	–	–	–	–
O=C(Nc1ccc(Cl)cc1)Nc1cccc(-c2cccc(N3CCCC3)c2)c1 [Compound 64]	84	679	110	27	–	–	–	–	–	–
O=C(Nc1ccc(Cl)cc1)Nc1cccc(-c2cccc(N3CCOCC3)n2)c1 [Compound 67a, 1-(4-Chlorophenyl)-3-(3-(6-morpholinopyridin-2-yl)phenyl)urea]	88	564	111	124	–	–	–	–	–	–
O=C(Nc1ccc(Cl)cc1)Nc1cccc(-c2cccc(N3CCNCC3)n2)c1 [Compound 67b, 1-(4-Chlorophenyl)-3-(3-(6-(piperazin-1-yl)pyridin-2-yl)phenyl)urea]	113	274	110	25	–	–	–	–	–	–
CCc1c(C(=O)NCCc2ccc(N3CCCCC3)cc2)[nH]c2ccc(N=C=S)cc12 [GAT100]	–	–	–	–	186	89.4	9.06	106	–	–
O=C(Nc1ccc(I)cc1)Nc1cccc(-c2cccc(N3CCCC3)n2)c1 [GAT205]	–	–	–	–	253	–	11.5	–	102	105
CCc1c(C(=O)NCCc2ccc(N3CCCCC3)cc2)[nH]c2ccc(N=[N+]=[N-])cc12 [GAT206]	–	–	–	–	391	–	28	–	89	106
O=C(NCCc1ccc(N2CCCCC2)cc1)c1[nH]c2ccc(Cl)cc2c1CCN=C=S [GAT209]	–	–	–	–	> 10000	0	225	104	–	–
O=C(Nc1ccc(C(=O)c2ccccc2)cc1)Nc1cccc(-c2cccc(N3CCCC3)n2)c1 [GAT300]	–	–	–	–	169	–	28.4	–	99.6	106
[N-]=[N+]=Nc1ccc(NC(=O)Nc2cccc(-c3cccc(N4CCCC4)n3)c2)cc1 [GAT331]	–	–	–	–	297	–	106	–	128	138
O=C(Nc1ccc(N=C=S)cc1)Nc1cccc(-c2cccc(N3CCCC3)n2)c1 [GAT332]	–	–	–	–	119	78.9	24	106	–	–
